Test results as given in ChEMBL document CHEMBL1201862, “PubChem BioAssay data set” (2004).
Calls of active or inactive are those of the source.

Legend:
[1] = HepG2 cell cytotoxicity, dose response, cytotoxicity control for non-replicating M. tuberculosis project (AID 489018); assay type: functional; conditions: Mycobacterium tuberculosis
H9c2 = assay: cells; assay type: functional, cell-based; conditions: Rattus norvegicus, H9c2, Myocardium;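 also: confirmatory concentration-response retest of ultra-high-throughput screening hits for modulation of myocardial damage; cell death induced by hydrogen peroxide oxidative stress; compound pretreatment for 60 min then peroxide exposure for 2 h; potency is for protecting the cells against peroxide damage rather than for killing them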
cells [2] = assay type: functional
[3] = THP-1 cell cytotoxicity, dose response, cytotoxicity control for non-replicating M. tuberculosis project (AID 489025); assay type: functional
[4] = Vero E6 cell cytotoxicity, dose response, cytotoxicity control for non-replicating M. tuberculosis project, secondary assay (AID 492998); assay type: functional, VeroE6; conditions: Vero C1008
cells [5] = assay type: functional, cell-based
cells [6] = assay type: functional, cell-based; remark: listed apart in the source
Cytochrome P450 2C19 = Cytochrome P450 2C19 (Homo sapiens, UniProt P33261); assay: Cytochrome panel assay with activity outcomes. Panel member name: p450-cyp2c19 Compounds with AC50 equal or less than 10 uM are considered active; assay type: functional; conditions: read-out: AC50
Sequence of Cytochrome P450 2C19 (P33261 whole entry): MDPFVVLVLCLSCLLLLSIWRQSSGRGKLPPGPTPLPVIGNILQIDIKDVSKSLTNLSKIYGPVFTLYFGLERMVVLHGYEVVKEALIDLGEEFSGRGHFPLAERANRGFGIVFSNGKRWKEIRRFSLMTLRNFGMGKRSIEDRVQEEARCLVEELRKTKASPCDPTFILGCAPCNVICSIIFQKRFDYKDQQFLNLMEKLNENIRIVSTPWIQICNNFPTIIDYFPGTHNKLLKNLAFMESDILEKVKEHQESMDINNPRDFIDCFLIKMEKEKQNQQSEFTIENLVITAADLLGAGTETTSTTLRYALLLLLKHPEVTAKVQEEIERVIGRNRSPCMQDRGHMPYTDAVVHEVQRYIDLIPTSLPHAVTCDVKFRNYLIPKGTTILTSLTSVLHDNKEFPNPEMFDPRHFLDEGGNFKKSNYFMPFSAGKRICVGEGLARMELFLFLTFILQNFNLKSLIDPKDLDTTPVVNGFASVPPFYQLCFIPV

Cytochrome P450 2C9 = Cytochrome P450 2C9 (Homo sapiens, UniProt P11712)
Sequence of Cytochrome P450 2C9 (P11712 whole entry): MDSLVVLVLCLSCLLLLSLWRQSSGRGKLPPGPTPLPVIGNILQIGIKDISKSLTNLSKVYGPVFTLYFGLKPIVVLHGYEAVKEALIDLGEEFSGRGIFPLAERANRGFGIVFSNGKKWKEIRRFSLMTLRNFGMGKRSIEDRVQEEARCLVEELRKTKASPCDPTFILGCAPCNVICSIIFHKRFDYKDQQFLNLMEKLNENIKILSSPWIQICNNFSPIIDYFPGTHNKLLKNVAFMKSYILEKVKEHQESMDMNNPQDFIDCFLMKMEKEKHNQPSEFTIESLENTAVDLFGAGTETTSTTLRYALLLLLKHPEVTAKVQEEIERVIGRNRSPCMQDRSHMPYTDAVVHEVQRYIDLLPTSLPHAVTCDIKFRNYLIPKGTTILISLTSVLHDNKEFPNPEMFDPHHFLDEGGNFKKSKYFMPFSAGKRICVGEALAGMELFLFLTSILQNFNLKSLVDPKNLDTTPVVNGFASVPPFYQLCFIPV

Vero = assay: cells; assay type: functional; conditions: Chlorocebus sabaeus
[7] = molecular target: FAD-linked sulfhydryl oxidase ALR (Homo sapiens, UniProt P55789); assay: inhibitors of human ALR sulfhydryl oxidase, dose response, biochemical, H2O2 detection, luminescence, cherry-pick (AID 493248)
Sequence of FAD-linked sulfhydryl oxidase ALR (P55789 whole entry): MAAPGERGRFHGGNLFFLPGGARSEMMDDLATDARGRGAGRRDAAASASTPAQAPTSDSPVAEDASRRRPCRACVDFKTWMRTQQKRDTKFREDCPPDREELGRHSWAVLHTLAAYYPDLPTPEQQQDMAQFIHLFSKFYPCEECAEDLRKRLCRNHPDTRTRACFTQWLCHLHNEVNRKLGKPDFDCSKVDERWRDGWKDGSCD

Large T antigen = Large T antigen (Simian virus 40, UniProt P03070); assay type: functional, Betapolyomavirus macacae;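 also: Confirmatory-stage PubChem screen for compounds that inhibit SV40 T antigen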
Sequence of Large T antigen (P03070 whole entry): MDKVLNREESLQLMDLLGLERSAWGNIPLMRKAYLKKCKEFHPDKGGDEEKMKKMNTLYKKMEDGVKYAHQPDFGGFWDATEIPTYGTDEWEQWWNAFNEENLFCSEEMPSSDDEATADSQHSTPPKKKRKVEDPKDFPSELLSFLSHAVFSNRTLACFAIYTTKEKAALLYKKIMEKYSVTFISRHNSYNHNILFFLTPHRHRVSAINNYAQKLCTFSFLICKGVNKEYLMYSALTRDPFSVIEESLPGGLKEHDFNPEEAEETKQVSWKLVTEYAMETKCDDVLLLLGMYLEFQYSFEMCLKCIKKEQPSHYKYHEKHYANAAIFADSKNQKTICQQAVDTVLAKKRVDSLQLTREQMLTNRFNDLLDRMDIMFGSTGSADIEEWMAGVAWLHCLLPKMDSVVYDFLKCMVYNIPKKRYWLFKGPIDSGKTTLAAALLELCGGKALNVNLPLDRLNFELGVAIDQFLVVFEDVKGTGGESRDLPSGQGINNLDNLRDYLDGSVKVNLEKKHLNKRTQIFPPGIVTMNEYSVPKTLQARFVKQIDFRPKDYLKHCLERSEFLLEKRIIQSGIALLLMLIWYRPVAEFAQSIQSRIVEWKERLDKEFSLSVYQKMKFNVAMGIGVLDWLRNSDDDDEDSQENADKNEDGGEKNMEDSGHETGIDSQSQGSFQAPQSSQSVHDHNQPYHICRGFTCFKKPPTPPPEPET

[8] = inhibitors of firefly luciferase expression or activity, dose response, H4 neuroglioma cells, luminescence (AID 1990); assay type: functional, cell-based
[9] = inhibitors of SNCA 5'UTR-driven reporter translation, confirmation, H4 neuroglioma cells, luminescence (AID 1988); assay type: functional, cell-based
[10] = Luminescence Cell-Based Dose Response HTS to Identify Inhibitors of 5'UTR Stem-Loop Driven Prion Protein mRNA Translation in H4 Neuroglioblastoma Cells. [Related pubchem assays: 1827 (Project Summary), 1813 (Primary HTS)]; assay type: functional
Protein skinhead-1 = molecular target: T1, Protein skinhead-1 (Caenorhabditis elegans, UniProt P34707); assay type: functional
T1 sequence (P34707 whole entry): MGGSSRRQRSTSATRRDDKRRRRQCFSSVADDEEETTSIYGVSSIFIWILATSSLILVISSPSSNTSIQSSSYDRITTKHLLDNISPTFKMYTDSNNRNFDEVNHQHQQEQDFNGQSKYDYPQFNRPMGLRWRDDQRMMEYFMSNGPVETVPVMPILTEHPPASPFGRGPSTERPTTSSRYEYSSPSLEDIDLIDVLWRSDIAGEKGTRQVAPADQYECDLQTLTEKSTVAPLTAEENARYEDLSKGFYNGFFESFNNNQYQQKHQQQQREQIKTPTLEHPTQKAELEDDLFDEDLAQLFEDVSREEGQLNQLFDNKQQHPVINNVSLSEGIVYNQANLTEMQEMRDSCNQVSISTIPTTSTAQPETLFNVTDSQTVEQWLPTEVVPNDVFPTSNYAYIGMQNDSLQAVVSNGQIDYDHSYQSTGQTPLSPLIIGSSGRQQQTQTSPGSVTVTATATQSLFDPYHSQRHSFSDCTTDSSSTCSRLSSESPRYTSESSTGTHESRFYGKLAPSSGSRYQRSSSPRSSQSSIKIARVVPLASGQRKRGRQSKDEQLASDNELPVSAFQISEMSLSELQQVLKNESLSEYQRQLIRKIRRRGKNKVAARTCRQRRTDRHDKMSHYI

[11] = molecular target: T2, Endoribonuclease toxin MazF (Escherichia coli K-12, UniProt P0AE70); assay: MazF toxin RNase activators, dose response, biochemical, fluorescence, single-stranded RNA substrate, uHTS hits (AID 588481); assay type: functional
T2 sequence (P0AE70 whole entry): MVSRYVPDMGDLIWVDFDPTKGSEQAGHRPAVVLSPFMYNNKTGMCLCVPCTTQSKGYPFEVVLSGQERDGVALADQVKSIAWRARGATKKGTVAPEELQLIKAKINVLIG

[12] = molecular target: T2, Endoribonuclease toxin MazF; assay: fluorescent RNA oligo signal without MazF, dose response, counter-screen for MazEF activator project, biochemical, fluorescence, single-stranded RNase substrate (AID 588502); assay type: functional
[13] = test system: Streptococcus sp. 'group A'; assay: growth inhibition of control SK(-) GAS strain, dose response, counter-screen for streptokinase expression inhibitor project, luminescence, kanamycin, BacTiterGlo, confirmation (AID 1900); assay type: functional, organism-based
[14] = NIH-3T3 fibroblast cytotoxicity, dose response, cytotoxicity control, cell-based, fluorescence, Alamar Blue, secondary assay (AID 2327); assay type: functional;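 also: NIH-3T3 mouse fibroblasts cultured with fluconazole at 8 µg/mL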
Streptococcus = assay: Group A Streptococcus viability loss, dose response, counter-screen for streptokinase expression inhibitor project, luminescence, BacTiterGlo (AID 1915); assay type: functional, organism-based;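 also: potency for reduction of bacterial viability or growth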
[15] = C. albicans growth with fluconazole, confirmation, fluorescence, retest (AID 2467); assay type: functional, cell-based
[16] = growth suppression of beta-catenin-knockout colon cells, dose response, cell-based, HCT116, human colon tumor (AID 1045); assay type: functional;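 also: HCT116 colon tumor cells with beta catenin knocked out; cells exposed to compound for 60 hours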
[17] = growth suppression of PTEN-null colon cells, dose response, cell-based, HCT116 PTEN knockout (AID 1047); assay type: functional;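 also: HCT116 colon tumor cells with PTEN knocked out; cells exposed to compound for 60 hours before readout; potency for loss of cell viability measured by luminescence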
Cytochrome P450 3A4 = Cytochrome P450 3A4 (Homo sapiens, UniProt P08684);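 also: CYP3A4 tested as one member of a cytochrome P450 panel screen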
Sequence of Cytochrome P450 3A4 (P08684 whole entry): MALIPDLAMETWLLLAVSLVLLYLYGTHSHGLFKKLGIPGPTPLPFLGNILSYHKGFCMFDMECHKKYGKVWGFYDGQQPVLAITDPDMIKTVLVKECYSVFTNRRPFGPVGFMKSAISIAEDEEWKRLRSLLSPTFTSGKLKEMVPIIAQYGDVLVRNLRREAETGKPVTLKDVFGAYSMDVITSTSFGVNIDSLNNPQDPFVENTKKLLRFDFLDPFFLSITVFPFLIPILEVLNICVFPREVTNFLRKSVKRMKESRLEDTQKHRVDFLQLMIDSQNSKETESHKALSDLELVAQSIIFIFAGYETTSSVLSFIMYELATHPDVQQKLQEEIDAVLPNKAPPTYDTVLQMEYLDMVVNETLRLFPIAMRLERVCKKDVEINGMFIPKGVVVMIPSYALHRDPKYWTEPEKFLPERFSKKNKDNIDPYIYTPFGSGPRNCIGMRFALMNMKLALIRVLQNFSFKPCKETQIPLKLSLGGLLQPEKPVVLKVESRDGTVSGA

Streptokinase A = molecular target: T3, Streptokinase A (Streptococcus pyogenes serotype M1, UniProt P10520); assay: S. pyogenes streptokinase expression inhibitors, potency, dose response, plasminogen activation absorbance, OD405 (AID 1914); assay type: functional, Streptococcus pyogenes M1 GAS;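 also: secreted streptokinase activity via plasminogen activation per viability signal from cell pellet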
T3 sequence (P10520 whole entry): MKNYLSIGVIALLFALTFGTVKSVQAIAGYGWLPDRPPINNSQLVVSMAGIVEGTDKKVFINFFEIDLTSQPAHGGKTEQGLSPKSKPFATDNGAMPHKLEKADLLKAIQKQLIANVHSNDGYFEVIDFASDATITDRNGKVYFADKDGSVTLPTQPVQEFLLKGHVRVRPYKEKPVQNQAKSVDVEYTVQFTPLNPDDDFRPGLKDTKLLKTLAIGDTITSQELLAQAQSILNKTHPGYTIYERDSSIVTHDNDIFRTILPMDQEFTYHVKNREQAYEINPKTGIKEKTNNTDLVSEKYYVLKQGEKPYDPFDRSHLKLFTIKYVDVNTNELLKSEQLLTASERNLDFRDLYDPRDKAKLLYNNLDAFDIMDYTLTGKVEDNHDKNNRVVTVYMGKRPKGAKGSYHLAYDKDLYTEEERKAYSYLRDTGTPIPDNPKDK

[18] = Luminescence Cell-Based Dose Retest to Confirm Inhibitors of Cancer Stem Cells. [Related pubchem assays (depositor defined):AID2717, AID2721]; assay type: functional; conditions: Homo sapiens

With `CCn1c(/C=N/NC(=O)c2ccc(OC)cc2)nc2ccccc21` the CC50 [1] was > 20 µM (active), the IC50 (H9c2) was > 79 µM (inactive) and the IC50 (cells [2]) was 15.7 µM (active). For the same molecule, the CC50 [3] was 24.1 µM (active) and the CC50 [4] was 17.9 µM (active).

With `COC(=O)[C@H](CCSC)NC(=O)c1cccnc1SC` the EC50 (cells [5]) was > 350 µM (not active) and the EC50 (cells [6]) was > 350 µM (not active).

In the case of `CCCCn1nc2cc(C(=O)NCC3CC3)ccc2c1OCC`, the AC50 (Cytochrome P450 2C19) is reported as 14.1 µM (inconclusive) and the AC50 (Cytochrome P450 2C9) is reported as “inconclusive”.

For `COC(=O)c1ccc2c(=O)n(Cc3ccc(C(=O)NCCCN4CCC(C)CC4)cc3)c(=S)[nH]c2c1`, the CC50 (Vero) was 20.9 µM (active).

For `CCN(CC)c1ccc(NC(=O)c2cccnc2)c(C)c1`, the AC50 [7] was 0.877 µM (active), the AC50 (Cytochrome P450 2C19) was 39.8 µM (inconclusive) and the IC50 (Large T antigen) was 77.3 µM (active). The AC50 (Cytochrome P450 2C9) was “inconclusive”.

For `C=CCn1c(C)cc(C(=O)CN2C(=O)c3ccccc3C2=O)c1C`, the EC50 [8] was 10.1 µM (inconclusive), the EC50 [9] was 8.53 µM (active) and the EC50 [10] was 18.7 µM (active). For the same molecule, the AC50 (Cytochrome P450 2C9) was “inconclusive”.

With `CCOC(=O)COn1c(-c2cccc(Cl)c2)nc2ccc([N+](=O)[O-])cc21` the IC50 (cells [2]) was 28.9 µM (active), the IC50 (Protein skinhead-1) was > 100 µM (inactive) and the CC50 [4] was > 20 µM (active).

In the case of `CCc1c(O)oc2nnc(C)c-2c1C`, the AC50 (Cytochrome P450 2C19) is reported as 11.2 µM (inconclusive) and the AC50 (Cytochrome P450 2C9) is reported as “inconclusive”.

For `CCOc1ccc(C(=O)Cc2cc(OC)c(OC)cc2[N+](=O)[O-])cc1`, the AC50 (Cytochrome P450 2C19) was 1.41 µM (inconclusive) and the AC50 (Cytochrome P450 2C9) was “inconclusive”.

With `COc1ccc(CN2C(=O)NC(=O)/C(=C/c3ccc[nH]3)C2=O)cc1` the EC50 [11] was > 99 µM (inactive) and the EC50 [12] was > 99 µM (inactive).

In the case of `COc1ccc(C(=O)NC(=S)NNC(=O)c2ccccc2C)cc1`, the EC50 [13] is reported as 1.31 µM (active), the EC50 [14] is reported as > 150 µM (inconclusive) and the EC50 (Streptococcus) is reported as 2.83 µM (active). For the same molecule, the EC50 [15] was 1.69 µM (active) and the CC50 (Vero) was > 25 µM (active).

With `CCOc1cc(CNCCO)cc(Br)c1OCc1ccc(Cl)cc1` the CC50 [1] was 11 µM (active), the IC50 (cells [2]) was 26.9 µM (active) and the EC50 [16] was 7.16 µM (active). For the same molecule, the CC50 [3] was 9.41 µM (active), the CC50 [4] was 12.7 µM (active) and the EC50 [17] was 7.29 µM (active).

In the case of `Cl.Fc1ccc(CCNCc2cccc(Cl)c2)cc1`, the AC50 (Cytochrome P450 2C19) is reported as 1 µM (inconclusive), the AC50 (Cytochrome P450 3A4) is reported as 12.6 µM (inconclusive) and the AC50 (Cytochrome P450 2C9) is reported as “inconclusive”.

In the case of `CC(C)c1ccc2[nH]c3c(c2c1)CCC/C3=N\NC(=O)c1ccncc1`, the EC50 [13] is reported as 3.54 µM (active), the EC50 (Streptokinase A) is reported as > 150 µM (not active) and the CC50 [1] is reported as > 20 µM (active). The EC50 (Streptococcus) was 16.9 µM (active), the IC50 (cells [2]) was 2 µM (active) and the CC50 [3] was 26 µM (active). For the same molecule, the CC50 [4] was 11.6 µM (active).

With `CC(=O)Nc1ccc2nc(NC(=O)COc3ccccc3C)sc2c1` the EC50 (cells [5]) was > 350 µM (not active) and the EC50 (cells [6]) was > 350 µM (not active).

With `COc1ccc(/C=C/c2cc(=O)c3cc(Cl)ccc3o2)cc1` the EC50 [11] was > 99 µM (inactive) and the EC50 [12] was 38 µM (inactive).

With `C=CCSc1cc(C)nc2c(-c3ccccc3)cnn12` the EC50 (cells [5]) was 26.8 µM (active) and the EC50 (cells [6]) was > 350 µM (not active).

In the case of `COc1cc(N/N=C(\C)c2ccc(O)c(C)c2)nc(-c2ccccc2)n1`, the AC50 [18] is reported as 3.99 µM (active) and the CC50 (Vero) is reported as > 25 µM (active).

In the case of `O=C(Cc1ccc(S(=O)(=O)N2CCOCC2)s1)Nc1ccc(S(=O)(=O)N2CCCCC2)cc1`, the EC50 (cells [5]) is reported as > 350 µM (not active) and the EC50 (cells [6]) is reported as > 350 µM (not active).

In the case of `O=[N+]([O-])c1ccc(NN=Cc2ccc3c(c2)OCO3)nc1`, the EC50 [11] is reported as 40.5 µM (inactive) and the EC50 [12] is reported as > 99 µM (inactive).
